For assay [1], the target named is T1, Dimer of Gag-Pol polyprotein [489-587] (Human immunodeficiency virus 1, UniProt P12497).
T1 construct: 489-587
Description: Protease Inhibition Assay. As to conditions: pH 6.25; 37 °C. Here is the method: (§1) Enzymatic activity was measured by following cleavage of the substrate H-Lys-Ala-Arg-Val-Leu-pNph-Glu-Ala-Nle-NH2. Products of the cleavage reaction were quantified by HPLC detection.

The target in assay [2] is T2, Dimer of Gag-Pol polyprotein [514-612] (Human immunodeficiency virus 2, UniProt P04584).
T2 construct: 514-612
T2 sequence (P04584 whole entry): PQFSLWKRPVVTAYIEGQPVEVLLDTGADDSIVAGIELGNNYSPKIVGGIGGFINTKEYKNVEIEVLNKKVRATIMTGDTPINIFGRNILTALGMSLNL
In words: Protease Inhibition Assay. The following applies: pH 4.7; 37 °C. Here is the method:
as §1

On to `CC(C)C1NC(=O)[C@@H](C(O)[C@H](Cc2ccccc2)NC(=O)[C@@H](NC(=O)CSc2nncn2C)C(C)(C)C)NCc2ccc(cc2)OCCOCCNC1=O` (stereo partly drawn) [(2S)-N-[(1S,2S)-1-[(10R,13R)-9,12-dioxo-10-(propan-2-yl)-2,5-dioxa-8,11,14-triazabicyclo[14.2.2]icosa-1(18),16,19-trien-13-yl]-1-hydroxy-3-phenylpropan-2-yl]-3,3-dimethyl-2-{2-[(4-methyl-4H-1,2,4-triazol-3-yl)sulfanyl]acetamido}butanamide], for which the Ki in assay [1] is 11.1 nM. The same measure, in the same setting: in the case of `CC(C)C1NC(=O)[C@@H](C(O)[C@H](Cc2ccccc2)NC(=O)OC2CCOC2)NCc2ccc(cc2)OCCOCCNC1=O` (stereo partly drawn) [(3R)-oxolan-3-yl N-[(1S,2S)-1-[(10R,13R)-9,12-dioxo-10-(propan-2-yl)-2,5-dioxa-8,11,14-triazabicyclo[14.2.2]icosa-1(18),16,19-trien-13-yl]-1-hydroxy-3-phenylpropan-2-yl]carbamate] it was 8.2 nM. The same measure, in the same setting: in the case of `CC(C)C1NC(=O)[C@@H](C(O)[C@H](Cc2ccccc2)NC(=O)[C@@H](NC(=O)OCc2ccccc2)C(C)C)NCc2ccc(cc2)OCCCCNC1=O` (stereo partly drawn) [benzyl N-[(1S)-1-{[(1S,2S)-1-[(9R,12R)-8,11-dioxo-9-(propan-2-yl)-2-oxa-7,10,13-triazabicyclo[13.2.2]nonadeca-1(17),15,18-trien-12-yl]-1-hydroxy-3-phenylpropan-2-yl]carbamoyl}-2-methylpropyl]carbamate] it was 6.6 nM. For the molecule `CC(C)C1NC(=O)[C@@H](C(O)[C@H](Cc2ccccc2)NC(=O)[C@@H](NC(=O)OCc2ccccc2)C(C)(C)C)NCc2ccc(cc2)OCCOCCNC1=O` (stereo partly drawn) [benzyl N-[(1S)-1-{[(1S,2S)-1-[(10R,13R)-9,12-dioxo-10-(propan-2-yl)-2,5-dioxa-8,11,14-triazabicyclo[14.2.2]icosa-1(18),16,19-trien-13-yl]-1-hydroxy-3-phenylpropan-2-yl]carbamoyl}-2,2-dimethylpropyl]carbamate], the Ki was 16 nM in assay [2] and 8 nM in assay [1]. As for `CC(C)C1NC(=O)[C@@H](C(O)[C@H](Cc2ccccc2)NC(=O)[C@@H](NC(=O)OCc2ccccc2)C(C)C)NCc2ccc(cc2)OCCOCCNC1=O` (stereo partly drawn) [benzyl N-[(1S)-1-{[(1S,2S)-1-[(10R,13R)-9,12-dioxo-10-(propan-2-yl)-2,5-dioxa-8,11,14-triazabicyclo[14.2.2]icosa-1(18),16,19-trien-13-yl]-1-hydroxy-3-phenylpropan-2-yl]carbamoyl}-2-methylpropyl]carbamate], the Ki in assay [2] was found to be 19 nM; in assay [1], 7.9 nM.

`CC(C)C1NC(=O)[C@@H](C(O)[C@H](Cc2ccccc2)NC(=O)[C@@H](NC(=O)OCc2ccccc2)C(C)C)NCc2ccc(cc2)OCCOCCOCCNC1=O` (stereo partly drawn) [benzyl N-[(1S)-1-{[(1S,2S)-1-[(13R,16R)-12,15-dioxo-13-(propan-2-yl)-2,5,8-trioxa-11,14,17-triazabicyclo[17.2.2]tricosa-1(21),19,22-trien-16-yl]-1-hydroxy-3-phenylpropan-2-yl]carbamoyl}-2-methylpropyl]carbamate]: the Ki in assay [2] is 27 nM; in assay [1] it was 6.9 nM.

In assay [1], `CC(C)C1NC(=O)[C@@H](C(O)[C@H](Cc2ccccc2)NC(=O)[C@@H](NC(=O)OCc2ccccc2)C(C)C)NCc2cccc(c2)OCCOCCOCCNC1=O` (stereo partly drawn) [benzyl N-[(1S)-1-{[(1S,2S)-1-[(13R,16R)-12,15-dioxo-13-(propan-2-yl)-2,5,8-trioxa-11,14,17-triazabicyclo[17.3.1]tricosa-1(22),19(23),20-trien-16-yl]-1-hydroxy-3-phenylpropan-2-yl]carbamoyl}-2-methylpropyl]carbamate] showed a Ki of 7.7 nM. In the case of `COc1ccc(CN[C@@H](C(=O)N[C@H]2c3ccccc3CC2O)C(O)[C@H](Cc2ccccc2)NC(=O)[C@@H](NC(=O)OCc2ccccc2)C(C)(C)C)cc1` (stereo partly drawn) [benzyl N-[(1S)-1-{[(2S,3S,4R)-3-hydroxy-4-{[(1S,2S)-2-hydroxy-2,3-dihydro-1H-inden-1-yl]carbamoyl}-4-{[(4-methoxyphenyl)methyl]amino}-1-phenylbutan-2-yl]carbamoyl}-2,2-dimethylpropyl]carbamate], the Ki is 50 nM in assay [2] and 9.5 nM in assay [1]. Take `COc1ccc(CN[C@@H](C(=O)NC(C(=O)NCc2nc3ccccc3[nH]2)C(C)C)C(O)[C@H](Cc2ccccc2)NC(=O)[C@@H](NC(=O)OCc2ccccc2)C(C)C)cc1` (stereo partly drawn) [benzyl N-[(1S)-1-{[(2S,3S,4R)-4-{[(1R)-1-[(1H-1,3-benzodiazol-2-ylmethyl)carbamoyl]-2-methylpropyl]carbamoyl}-3-hydroxy-4-{[(4-methoxyphenyl)methyl]amino}-1-phenylbutan-2-yl]carbamoyl}-2-methylpropyl]carbamate]: the affinity in assay [1], expressed as Ki, was 3.4 nM. In the case of `CC(C)C1NC(=O)[C@@H](C(O)[C@H](Cc2ccccc2)NC(=O)OC(C)(C)C)NCc2ccc(cc2)OCCCCNC1=O` (stereo partly drawn) [tert-butyl N-[(1S,2S)-1-[(9R,12R)-8,11-dioxo-9-(propan-2-yl)-2-oxa-7,10,13-triazabicyclo[13.2.2]nonadeca-1(17),15,18-trien-12-yl]-1-hydroxy-3-phenylpropan-2-yl]carbamate], the affinity in assay [1], expressed as Ki, was 17 nM. Regarding `CC(C)C1NC(=O)[C@@H](C(O)[C@H](Cc2ccccc2)NC(=O)OC(C)(C)C)NCc2ccc(cc2)OCCOCCNC1=O` (stereo partly drawn) [tert-butyl N-[(1S,2S)-1-[(10R,13R)-9,12-dioxo-10-(propan-2-yl)-2,5-dioxa-8,11,14-triazabicyclo[14.2.2]icosa-1(18),16,19-trien-13-yl]-1-hydroxy-3-phenylpropan-2-yl]carbamate], the inhibitory constant (Ki) in assay [1] stood at 14 nM.

`CC(C)C1NC(=O)[C@@H](C(O)[C@H](Cc2ccccc2)NC(=O)OC(C)(C)C)NCc2cccc(c2)OCCOCCOCCNC1=O` (stereo partly drawn) [tert-butyl N-[(1S,2S)-1-[(13R,16R)-12,15-dioxo-13-(propan-2-yl)-2,5,8-trioxa-11,14,17-triazabicyclo[17.3.1]tricosa-1(22),19(23),20-trien-16-yl]-1-hydroxy-3-phenylpropan-2-yl]carbamate] came in with a Ki in assay [1] of 208 nM. Take `CC(C)C1NC(=O)[C@@H](C(O)[C@H](Cc2ccccc2)NC(=O)OC(C)(C)C)NCc2ccc(cc2)OCCOCCOCCOCCNC1=O` (stereo partly drawn) [tert-butyl N-[(1S,2S)-1-[(16R,19R)-15,18-dioxo-16-(propan-2-yl)-2,5,8,11-tetraoxa-14,17,20-triazabicyclo[20.2.2]hexacosa-1(24),22,25-trien-19-yl]-1-hydroxy-3-phenylpropan-2-yl]carbamate]: the Ki in assay [1] is 23.2 nM.

Broadly, the Ki is a measure of affinity in units of concentration, obtained from inhibition or displacement. A higher Ki goes with a looser hold on the target.
